Here are results for 10 molecules from patent US7186736B1, “NNI for treatment of multi-drug resistant HIV” (Parker Hughes Institute, priority 1999, dated 2007).

Where two headings read alike, the source gives them in different places.

Series [1] deals with HIV strain RT-MDR (74V, 41L, 106A, 215Y). Nature of the series: microbe, parasite or virus in culture. Format: cell-based, HIV-1. To be noted: for times less potent than DDE240: multiple drug resistant mutant strain. The protocol: (§1) Percent inhibition of viral replication was calculated by comparing the p24 values from the test substance treated infected cells with p24 values from untreated infected cells (i.e., virus controls). In parallel, the effects of various treatments on cell viability were also examined, as described in Enrice et. al., supra. In brief, non-infected PBNWC were treated with each compound for 7 days under identical experimental conditions. A Microculture Tetrazolium Assay (NTFA), using 2,3-bis(2-methoxy-4 nitro-5-sulfophenyl)-5-[(phenylamino)-carbonyl]-2H-tetrazolium hydroxide (XTT), was performed to quantitate cellular proliferation.

Series [2] relates to HIV strain HTLV-IIIB (WT). Nature of the series: p24 production in PBMNC infected with HTLV-IIIB. Format: cell-based, HIV-1. The protocol:
as §1

The next series has as its system HIV strain A17 (Y181C). Nature of the series: p24 production in PBMNC infected with A17. Format: cell-based, HIV-1. Particulars: for IC50: Human immunodeficiency virus 1, read-out: IC50 p24. The protocol:
(§2) Normal human peripheral blood mononuclear cells (PBMNC) from HIV-negative donors were cultured 72 hours in RPMI 1640 supplemented with 20% (v/v) heat-inactivated fetal bovine serum (FBS), 3% interleukin-2, 2 mM L-glutairtine, 25 mM HEPES, 2 μL, NAHCO, […] gentamicin, and 4 μg/mL phytohemagglutinin prior to exposure to HIV-I at a multiplicity of infection (MOI) of 0.1 during a one-hour adsorption period at 37'C in a humidified 5% C02 atmosphere. Subsequently, cells were cultured in 96-well microliter plates (100 μl/well; 2×10^6 cells/mL, triplicate wells) in the presence of various inhibitor concentrations and aliquots of culture supernatants were removed from the wells on the 7th day after infection for p24 antigen p24 enzyme immunoassays (EIA), as previously described. (see Erice et. al., 1993, Antiimicrob. Ag. Chemotherapy 37:835–838) The applied p24 EIA was the unmodified kinetic assay commercially available from Coulter Corporation/Immunotech, Inc. (Westbrooke, Me.), which utilizes a murine monoclonal antibody to HIV core protein coated onto microwell strips to which the antigen present in the test culture supernatant samples binds. Percent inhibition of viral replication was calculated by comparing the p24 values from the test substance treated infected cells with p24 values from untreated infected cells (i.e., virus controls). In parallel, the effects of various treatments on cell viability were also examined, as described in Enrice et. al., supra. In brief, non-infected PBNWC were treated with each compound for 7 days under identical experimental conditions. A Microculture Tetrazolium Assay (NTFA), using 2,3-bis(2-methoxy-4 nitro-5-sulfophenyl)-5-[(phenylamino)-carbonyl]-2H-tetrazolium hydroxide (XTT), was performed to quantitate cellular proliferation.

In series [3] the target is T1, purified recombinant HIV RT (Human immunodeficiency virus type 1 group M subtype B, UniProt P04585).
T1 construct: purified recombinant HIV RT
Nature of the series: Purified RT assay, cell-free Quan-T-RT system (scintillation proximity). Format: biochemical. Particulars: for IC50: recombinant HIV RT, cell-free. The protocol:
The primer DNA is a 16-mer oligo(T) which has been annealed to a poly(A) template. The primer/template is bound to a strepavidin-coated SPA bead.
3H-TTP is incorporated into the primer by reverse transcription. […] The compound being tested was added to the reaction mixture at 0.001 μM–100 μM concentrations. […] The reaction was stopped by addition of 0.2 ml of 120 mM EDTA. The samples were counted in an open window using a Beckman LS 7600 instrument and IC, values were calculated by comparing the measurements to untreated samples.
In general terms: Scintillation proximity formats need no separation of bound from free tracer.

The subject of series [4] is HIV strain A17 variant (Y181C, K103N). In words: p24 production in PBMNC infected with A17 variant. Format: cell-based, HIV-1. To be noted: Human immunodeficiency virus 1, read-out: IC50 p24. The protocol: as §2
Where [5] appears, read: Human immunodeficiency virus 1, read-out: IC50 p24, RT-MDR (74V, 41L, 106A, 215Y), PBMNC.
The mark [6] stands for this setting: Human immunodeficiency virus 1, IIIB, HIV replication assay.
[7] abbreviates: Human immunodeficiency virus 1, HTLV IIIB WT, PBMNC, read-out: IC50 p24.
Where [8] appears, read: Human immunodeficiency virus 1, HTLV IIIB, PBMNC, read-out: IC50[p24].

With `Cc1cn([C@H]2C[C@H](N=[N+]=[N-])[C@@H](CO)O2)c(=O)[nH]c1=O` [AZT, reference compound], the values for the IC50 (in series [1] (setting [5]); with HIV strain A17 (Y181C)) were 150 nM and 6 nM, respectively. In series [2] (setting [6]), the 90% effect level (IC90) was put at 100 nM.

As for `COc1ccc(OC)c(CCNC(=S)Nc2ccc(Br)cn2)c1` [DDE236, N-[2-(2,5-dimethoxyphenylethyl)]-N′-[2-(5-bromopyridyl)]-thiourea], the melting point (commonly the temperature of the solid-liquid transition) fell in the range of 133 to 138 °C. In addition, the “times more potent than trovirdine” value in series [3] (purified recombinant HIV-RT) was 8 times. In series [4], the IC50 (usually the midpoint of a concentration-inhibition curve) amounted to 11000 nM. In series [1] (setting [5]), the IC50 was found to be 5 nM. Moreover, the “IC90 fold better than AZT” value in series [2] (HIV replication assay) worked out at 10 fold. Further, it took 9 nM to reach the 90% level in series [2] (setting [6]) (IC90). The IC50 in series [2] (setting [7]) is below 1 nM. The “selectivity index (IC50[MTA]/IC50[p24])” value in series [2] (calculated) is > 10^5. Moreover, the IC50 in the series on HIV strain A17 (Y181C) stood at 100 nM.

In turn, `Fc1ccccc1CCNC(=S)Nc1ccc(Br)cn1` [DDE240, N-[2-(2-fluorophenethyl)]-N′-[2-(5-bromopyridyl)]-thiourea] came in with a melting point of 156 to 157 °C. Besides, the IC50 in series [4] turned out to be 41000 nM. Also, the concentration for half-maximal inhibition (IC50) in series [1] (setting [5]) amounted to 6 nM. Moreover, in series [1] (MDR HIV), the “fold better activity than delavirdine” value was 100 fold and the “fold better activity than nevirapine” value stood at 800 fold. Moreover, the IC50 in series [1] (read-out: IC50 p24, RT-MDR (74V, 41L, 106A, 215Y), PBMNC) was determined as 5 nM. For the same molecule, in series [2] (setting [7]), the IC50 was below 1 nM. The IC50 in series [2] (setting [8]) was below 1 nM. Also, the IC50 in the series with HIV strain A17 (Y181C) is 200 nM. Besides, in the series on HIV strain A17 (Y181C) (Y181C mutant), the “times better activity than delavirdine” value worked out at 200 times and the “times more potent than nevirapine” value is recorded as “more than 500 times”.

Take `Fc1cccc(CCNC(=S)Nc2ccc(Br)cn2)c1` [DDE241]: the IC50 was 760 nM in series [3] (read-out: RRT (IC50[rRT])), 20 nM in series [1] (setting [5]) and below 1 nM in series [2] (setting [7]).

For `Fc1ccc(CCNC(=S)Nc2ccc(Br)cn2)cc1` [DDE242], the IC50 is 6000 nM in series [3] (RRT (IC50[rRT])), 6060 nM in series [3] (read-out: RRT (IC50[rRT])) and 10 nM in series [2] (setting [8]).

On to `S=C(NCCc1ccccc1Cl)Nc1ccc(Br)cn1` [DDE253], for which the IC50 in series [1] (setting [5]) was 4 nM; in series [2] (setting [7]), below 1 nM.

In the case of `CC(C)Nc1cccnc1N1CCN(C(=O)c2cc3cc(NS(C)(=O)=O)ccc3[nH]2)CC1` [Delavirdine, reference compound], the IC50 in series [4] was above 100000 nM; in series [1] (setting [5]), 400 nM; in series [2] (setting [7]) it was 9 nM; in the series with HIV strain A17 (Y181C) it was 50000 nM.

With `CCOCn1c(Cc2ccccc2)c(C(C)C)c(=O)[nH]c1=O` [MKC-442, reference compound], the IC50 in series [3] (read-out: RRT (IC50[rRT])) came to 800 nM; in series [1] (setting [5]) it was 300 nM.

In the case of `Cc1ccnc2c1NC(=O)c1cccnc1N2C1CC1` [Nevirapine, reference compound], the half-maximal inhibitory concentration (IC50) in series [4] was above 100000 nM; in series [1] (setting [5]), 5000 nM; in series [2] (setting [7]), 34 nM; with HIV strain A17 (Y181C) it was above 100000 nM.

With `S=C(NCCc1ccccn1)Nc1ccc(Br)cn1` [Trovirdine, reference compound], the IC50 is 20 nM in series [1] (Human immunodeficiency virus 1, read-out: IC50 p24) and 7 nM in series [2] (Human immunodeficiency virus 1, IIIB, read-out: IC50 p24). Further, the “times less potent than DDE240” value in series [1] is on record as “up to 7 times”; in series [1] (listed as Trouviridine) it was “three times less potent”; in series [2] (zidovudine-sensitive strain HTLV IIIB), 10 times.
